From patent publication US20080124366A1, “Methods and Compositions for Treating Tumors” (priority 2006, published 2008) come the findings set out here.

The test system of data set [1] is cervical lymph node T cells and DCs. Kind of data set: Flow cytometry of draining cervical lymph nodes after s.c. vaccination. In kind it is in vivo, C57BL/6 mice. Conditions: vs lysate or normal. On the procedure: Flow cytometry. Normal B6 mice were vaccinated two times, one week apart with CpG/lysate, CpG, lysate, or were not vaccinated as the controls (n=4/group). Six days after the last vaccination, the left and right cervical lymph nodes of each mouse were harvested, counted for LN cell numbers, and analyzed by flow cytometry with various monoclonal antibodies (1 μg/10^6 cells) including FITC-anti-CD3, PE-anti-CD8, APC-anti-CD4, FITC-anti-CD1 1c, PE-anti-CCR7, and APC-anti-CD86 (eBioscience, San Diego, Calif.).
The ability of CpG ODN to activate and mature DCs to elicit T cell-mediated responses has been established. An experiment was conducted to characterize the effects of CpG/lysate vaccination on DCs and T cells in the draining lymph nodes. Normal B6 mice were vaccinated two times, one week apart, by subcutaneous (s.c.) injection with CpG ODN, tumor lysate, or CpG/lysate (n=4/group). Six days after the second vaccination, the draining cervical lymph nodes of each mouse were harvested, counted for total cell number, and analyzed by flow cytometry.

The test system of data set [2] is intracranial GL261-Luc glioma. Kind of data set: s.c. vaccination of mice bearing intracranial GL261-Luc glioma, bioluminescent imaging and survival (Example 5). In kind it is in vivo, C57BL/6 mice. Conditions: s.c. days 4, 11, 18. Here is the method: Glioma model and in vivo imaging. Six to seven week old female C57BL/6 mice were purchased from Jackson Laboratory and maintained in a specific pathogen free (SPF) facility according to the guidelines of the University of Minnesota Animal Care and Use Committee (IACUC). For intracranial tumor inoculations, animals were deeply anesthetized with a ketamine/xylazine cocktail solution (53.7 mg/ml ketamine, 9.26 mg/ml xylazine) delivered at 1 ml/kg. 10,000 GL261-Luc cells in 1 μl of PBS were implanted stereotactically into the right striatum; coordinates were 2.2 mm lateral, and 0.5 mm posterior of bregma, and 3 mm ventral from the cortical surface of the brain. For imaging mice were deeply anesthetized by i.p. injection with avertin (225 mg/kg) and injected with 100 μl of luciferin (substrate for luciferase enzyme; 28.5 mg/ml, Xenogen®, Hopkinton, Mass.). Mice were imaged five minutes after luciferin injection using the Ivis 50 system (Xenogen®). […] Luciferase activity was analyzed using living image software (version 2.5; Xenogen®) according to the manufacturer's instructions. […]
Statistical analysis. […] Differences in animal survival between treatment groups were evaluated by log-rank statistical analysis with Sigmastat software (Systat Software, Inc. San Jose, Calif.); only P values <0.05 were considered significant.

In the next data set the test system is GL261 mouse glioma model. Kind of data set: Intratumoral CpG ODN administration in GL261 mouse glioma model. In kind it is in vivo. Conditions: weakly immunogenic GL261 / GL261-Luc model.
The subject of data set [3] is Human brain tumor stem cells. Kind of data set: Incubation of human brain tumor stem cells in INF-gamma. It is filed as cell-based.

Entries after “also recorded” stand apart in the source; their conditions may differ.

On to “5′-TCGTCGTTTTGTCGTTTTGTCGTT-3′ [CpG ODN]”, for which the “number of activated (CD11c+CD86+/CCR7+) DCs in draining lymph nodes” value in data set [1] was “significant increase”. Further, the “effect on tumor growth or survival” value in data set [2] was “no effect”. The “efficacy of intratumoral administration” value in the data set on GL261 mouse glioma model is “not effective; also recorded: failed to cause sustained tumor regression”.

B1: INF-gamma: interferon-gamma in which cancer stem cells were incubated (protein, UniProt P01579 24-161, looked up)
Interferon gamma: QDPYVKEAENLKKYFNAGHSDVADNGTLFLGILKNWKEESDRKIMQSQIVSFYFKLFKNFKDDQSIQKSVETIKEDMNVKFFNSNKKKRDDFEKLTNYSVTDLNVQRKAIHELIQVMAELSPAAKTGKRKRSQMLFRG
B1: the “immunogenicity of cancer stem cells after incubation” value in data set [3] was “restores their immunogenecity”.
